A short description of data set [1]: xn = mol fraction of the nth substance listed. Conditions: 100 kPa, Liquid, x1 = 1; for speed of sound: Frequency=2 MHz, Linear variable-path acoustic interferometer; for mass density: Vibrating tube method.
The conditions of data set [2]: 100 kPa, Liquid; for speed of sound: Frequency=2 MHz, Linear variable-path acoustic interferometer; for mass density: Vibrating tube method.

The speed of sound is how fast a sound wave travels through the sample. In general, mass density refers to mass per unit of volume.

± gives the expanded uncertainty stated by the source.

`CCO` [ethanol] + Cc1ccc(O)cc1: the values for the speed of sound in data set [1] (303.15 K) and in data set [1] (313.15 K) were 1127 ± 2.4 m/s and 1094 ± 2.4 m/s, respectively. For the same compound, the mass density in data set [1] (303.15 K) came out at 781.08 ± 1.2 kg/m3; in data set [1] (308.15 K), 776.59 ± 1.2 kg/m3; in data set [1] (313.15 K), 772.23 ± 1.2 kg/m3; in data set [1] (318.15 K) it was 767.61 ± 1.2 kg/m3.

For `Cc1ccc(O)cc1` [4-methylphenol], the speed of sound in data set [2] (303.15 K) is 1473 ± 2.5 m/s; in data set [2] (313.15 K) it was 1440.2 ± 2.5 m/s. In addition, the mass density turned out to be 1026.47 ± 1.2 kg/m3 in data set [2] (303.15 K), 1022.56 ± 1.2 kg/m3 in data set [2] (308.15 K), 1018.64 ± 1.2 kg/m3 in data set [2] (313.15 K) and 1014.68 ± 1.2 kg/m3 in data set [2] (318.15 K).

Turning to `Cc1ccccc1O` [2-methylphenol], the values for the speed of sound in data set [2] (303.15 K) and in data set [2] (313.15 K) were 1488.1 ± 2.5 m/s and 1453 ± 2.5 m/s, respectively. Further, the mass density worked out at 1037.02 ± 1.2 kg/m3 in data set [2] (303.15 K), 1032.58 ± 1.2 kg/m3 in data set [2] (308.15 K), 1028.19 ± 1.2 kg/m3 in data set [2] (313.15 K) and 1023.82 ± 1.2 kg/m3 in data set [2] (318.15 K).

For `Cc1cccc(O)c1` [3-methylphenol], the results for the speed of sound in data set [2] (303.15 K) and in data set [2] (313.15 K) were 1466.1 ± 2.5 m/s and 1436.1 ± 2.5 m/s, respectively. Also, the mass density in data set [2] (303.15 K) amounted to 1025.71 ± 1.2 kg/m3; in data set [2] (308.15 K), 1021.7 ± 1.2 kg/m3; in data set [2] (313.15 K), 1017.69 ± 1.2 kg/m3; in data set [2] (318.15 K), 1013.65 ± 1.2 kg/m3.

Turning to `CCO` [ethanol] + Cc1cccc(O)c1, the speed of sound in data set [1] (303.15 K) amounted to 1127 ± 2.4 m/s; in data set [1] (313.15 K), 1094 ± 2.4 m/s. Besides, the mass density in data set [1] (303.15 K) came out at 781.08 ± 1.2 kg/m3; in data set [1] (308.15 K) it was 776.59 ± 1.2 kg/m3; in data set [1] (313.15 K), 772.23 ± 1.2 kg/m3; in data set [1] (318.15 K), 767.61 ± 1.2 kg/m3.

In the case of `CCO` [ethanol] + Cc1ccccc1O, the speed of sound in data set [1] (303.15 K) came out at 1127 ± 2.4 m/s; in data set [1] (313.15 K) it was 1094 ± 2.4 m/s. Further, the mass density in data set [1] (303.15 K) was 781.08 ± 1.2 kg/m3; in data set [1] (308.15 K) it was 776.59 ± 1.2 kg/m3; in data set [1] (313.15 K), 772.23 ± 1.2 kg/m3; in data set [1] (318.15 K) it was 767.61 ± 1.2 kg/m3.

`CCO` [ethanol]: the values for the speed of sound in data set [2] (303.15 K) and in data set [2] (313.15 K) were 1127 ± 2.4 m/s and 1094 ± 2.4 m/s, respectively. Moreover, the mass density came out at 781.08 ± 1.2 kg/m3 in data set [2] (303.15 K), 776.59 ± 1.2 kg/m3 in data set [2] (308.15 K), 772.23 ± 1.2 kg/m3 in data set [2] (313.15 K) and 767.61 ± 1.2 kg/m3 in data set [2] (318.15 K).

Values taken from the NIST ThermoML archive (doi:10.1016/j.jct.2018.12.039).
